Assay results from US7803381B2, “Retro-inverso gonadotropin-releasing hormone peptide and vaccine composition” (Shimoda Biotech (Pty) Ltd., priority 2002, dated 2010).
pEC50, pIC50: −log10 of the molar value. “And” between values parts separate entries of the source, which are not always exact repeats. Identical values can stand only once. “Also recorded” adds a separate entry of the source. Non-standard residues stand in square brackets, D forms with d. Residues, ends and D or L forms follow the SMILES beside them. No end group written: not given here. pGlu = O=C1CC[C@@H](C(=O)O)N1

Columns and labels:
[1] = system: purified rabbit anti-RI-GnRH antibodies; assay: Inhibition immunoassay (ELISA): peptide displacement of anti-RI-GnRH antibodies from fixed RI-GnRH; type: binding; conditions: for inhibition by free peptide of anti-RI-GnRH antibody binding to fixed RI-GnRH: ELISA, increasing peptide concentrations
Description: (§1) Microtitre plates were coated with RI-GnRH peptide (5 μg/ml) in 100 mM Na2CO3 (pH=9.6) and incubated for one hour at 37° C. After several washes with PBS (pH=7.4) plates were saturated for one hour with 1% BSA in PBS supplemented with Tween 20 (0.1% wt/volume) at 37° C. Sera from immunised rabbits and mice at different dilutions (1:500 to 1:3200) were added to the plates and incubated for one hour at 37° C. […] Washed plates were reacted with 3,3′,5,5′-tetramethyl benzidine (TMB) and […] as substrate.
(§2) Nonspecific inhibition was determined with an unrelated L peptide, […](V9C), and an unrelated RI peptide ([…]. Various dilutions of anti-RI-GnRH antibodies were preincubated with increasing concentrations of peptide (3.9-1000 nM) for 1 h at 37° C. The percent inhibition of signal was calculated from the amount of anti-RI-GnRH antibodies that bound RI-GnRH in the presence of increasing peptide concentrations against the amount of anti-RI-GnRH antibodies that bound RI-GnRH in the absence of competing peptide.

human GnRH receptor = molecular target: T1, human GnRH receptor (Homo sapiens, UniProt P30968); assay: GnRH analog-stimulated inositol phosphate (IP) accumulation in COS-1 cells transiently transfected with human GnRH receptor; type: cell-based
T1 construct: expressed in transfected cells; host or cells: COS-1 cells, transient transfection (DEAE-Dextran), vector pcDNA I/AMP
T1 sequence (P30968 1-328): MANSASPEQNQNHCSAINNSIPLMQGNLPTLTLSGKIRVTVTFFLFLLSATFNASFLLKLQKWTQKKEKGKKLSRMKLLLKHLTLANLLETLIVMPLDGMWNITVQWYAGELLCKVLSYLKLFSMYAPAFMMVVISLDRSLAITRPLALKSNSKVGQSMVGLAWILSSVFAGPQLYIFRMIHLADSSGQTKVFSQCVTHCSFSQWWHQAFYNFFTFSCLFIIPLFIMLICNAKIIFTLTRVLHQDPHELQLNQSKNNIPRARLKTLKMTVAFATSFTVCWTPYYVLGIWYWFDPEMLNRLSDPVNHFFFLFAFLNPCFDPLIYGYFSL
Description: COS-1 cells were cultured in Dulbecco's modified Eagle's medium/DMEM (Life Technologies, Inc., Paisley, Scotland), supplemented with 10% foetal calf serum (FCS, Delta bioproducts, Kempton Park, South Africa) in a 10% CO2 incubator at 37° C. Cells were harvested with 0.05% trypsin. For all transient transfections 2×10^5 cells/well were seeded into 12-well plates and cultured overnight in DMEM containing 10% FCS and antibiotics (2 mg/ml streptomycin sulphate, 4000 U/ml sodium benzyl penicillin). COS-1 cells were transiently transfected using the DEAE-Dextran method, as previously described.
The transfected COS-1 cells (2×10^5 cells/well) were incubated overnight in 0.5 ml Medium 199 (Life Technologies Inc.) with antibiotics and myo-[2-^3H] inositol (1 μCi/well, Amersham Pharmacia Biotech) as previously described. […] Aspirating the medium and addition of 10 mM formic acid (1 ml/well) terminated the incubation. Inositol phosphates separated from the formic acid extract on DOWEX-1 ion exchange columns and eluted into scintillation liquid (Quicksafe, Zinsser Analytical, Frankfurt, Germany) and the radioactivity was counted.
IP assays were performed in duplicate and four-parameter nonlinear curve fitting (PRISM, GraphPad Software, In., San Diego, Calif.) was used to estimate the peptide concentrations required to stimulate half-maximal IP production (EC50). […]

GnRH [2] = molecular target: T2, GnRH (Homo sapiens, UniProt P01148); assay: Antiserum/antibody inhibition of GnRH stimulated IP accumulation in COS-1 cells transfected with human GnRH receptor; type: cell-based, mammalian
T2 construct: made in house; host or cells: chemical solid-phase synthesis (University of Cape Town); receptor expressed in transfected COS-1 cells
Description: (§3) The transfected COS-1 cells (2×10^5 cells/well) were incubated overnight in 0.5 ml Medium 199 (Life Technologies Inc.) with antibiotics and myo-[2-^3H] inositol (1 μCi/well, Amersham Pharmacia Biotech) as previously described. The labelled cells were incubated with various concentrations of GnRH-analogs for one hour at 37° C. in the presence of LiCl as described. Aspirating the medium and addition of 10 mM formic acid (1 ml/well) terminated the incubation. Inositol phosphates separated from the formic acid extract on DOWEX-1 ion exchange columns and eluted into scintillation liquid (Quicksafe, Zinsser Analytical, Frankfurt, Germany) and the radioactivity was counted. […] Serum from the same rabbits before immunisation was also tested. […] After one hour the incubation was terminated with formic acid and inositol phosphates were separated and counted as described. […] The mixture was added to labelled cells, and the inhibition of IP production was calculated. […] Purified anti-RI-GnRH antibodies were tested for their ability to discriminate among GnRH, [[…]]GnRH, and GnRH II. […] Stimulating with these concentrations [half-maximal effective concentrations (EC50)] in the absence of antibody produced similar levels of IP counts. […] The mixture was added to labelled cells and the inhibition of IP production calculated as described. IP assays were performed in duplicate and four-parameter nonlinear curve fitting (PRISM, GraphPad Software, In., San Diego, Calif.) was used to estimate the peptide concentrations required to stimulate half-maximal IP production (EC50). […] All kinetic analysis was performed with BiaEvaluation 3 (BIACORE) software, using the standard χ^2 statistic test. […] All statistical analyses were performed with StatView, using a standard correlation program.

GnRH [3] = assay: as above; type: cell-based, mammalian; conditions: 5 nM antibody fraction; 0.3 nM GnRH, 1 nM [Gln^8]GnRH, 1 nM GnRH II
Description: as §3

RI-GnRH peptide = assay: ELISA binding of purified anti-RI-GnRH antibody fractions to RI-GnRH; conditions: ELISA titre
Description: as §1

rabbits = assay: Rabbit immunisation with RI-GnRH conjugated with MAO; type: in vivo; conditions: 100 μg/rabbit conjugated with MAO, CFA then IFA boosters
Description: Two adult female rabbits (Harlan, Leicestershire, UK) were immunised with RI-GnRH (100 μg/rabbit) conjugated with MAO. The primary injections were given subcutaneously in complete Freund's adjuvant (CFA). These were followed by three booster injections (1 ml/rabbit) in incomplete Freund's adjuvant (IFA) at two week intervals. The last booster injection was given four weeks later using 200 μg free peptide together with 1 mg methylated-BSA (m-BSA). The rabbits were bled one week after each injection. Two experiments were performed with mice to test whether immunization with RI-GnRH would generate GnRH antibodies, and different methods of immunization with RI-GnRH were tested.
as §1

male BALB/c mice = type: in vivo, mouse
Description: Nine male BALB/c mice (Janvier, France), nine weeks of age, were immunised intraperitoneally (i.p.) with either 25 μg/mouse RI-GnRH conjugated with MAO (n=5) or saline buffer (n=4). The primary injections were given in CFA supplemented with 200 μg m-BSA. These were followed by two-booster injections in IFA and m-BSA at day 15 and 45 after primary injection. The mice were weighed and bled one week after each immunisation. On day 45, males injected with RI-GnRH conjugate or saline were placed with females of proven fertility and litters observed. The males were sacrificed 75 days after primary injection for histological examination.
as §1, §2
Male mice were sacrificed and the testes dissected. Testes were weighed and fixed in formalin/saline solution (12%) for routine histology. The fixed testes were dehydrated, sectioned (5 μm thick) and stained with haematoxylin and eosin.

BALB/c mice = assay: Second mice example: immunisation of BALB/c mice with unconjugated RI-GnRH coinjected with CpG, titre and fertility; type: in vivo, mouse; conditions: for Titre 1 (d 37): individual mice 1-6, without complete Freund's adjuvant
Description: In the second experiment, four week old BALB/c mice (3 of each sex) were immunised with 25 μg/mouse unconjugated RI-GnRH coinjected with CpG (50 μg/mouse) oligonucleotide and m-BSA. A control group (2 of each sex) received saline buffer together with 50 μg/mouse CpG oligonucleotide as adjuvant (Klinman, et al., 1999) supplemented with 200 μg m-BSA. All injections were given in 10% v/v IFA. Mice were immunised at days 1, 15 and 30. They were bled and mated with partners of proven fertility at day 37 after the initial immunisation.
as §1

**Q.** For `CC(C)C[C@H](NC(=O)CNC(=O)[C@H](Cc1ccc(O)cc1)NC(=O)[C@H](CO)NC(=O)[C@H](Cc1c[nH]c2ccccc12)NC(=O)[C@H](Cc1c[nH]cn1)NC(=O)[C@@H]1CCC(=O)N1)C(=O)N[C@@H](CCCNC(=N)N)C(=O)N1CCC[C@H]1C(=O)NCC(N)=O` [GnRH], which “inhibition by free peptide of anti-RI-GnRH antibody binding to fixed RI-GnRH” value (“inhibition by free peptide” below) [1] is on record?
**A.** The value was “could also inhibit”.

**Q.** How did the pEC50 (human GnRH receptor; absence of antibody, read-out: EC50 of ligand-stimulated IP accumulation) turn out when `NC(=O)CNC(=O)[C@@H]1CCCN1C(=O)[C@H](Cc1ccc(O)cc1)NC(=O)[C@H](Cc1c[nH]c2ccccc12)NC(=O)CNC(=O)[C@H](Cc1c[nH]cn1)NC(=O)[C@H](CO)NC(=O)[C@H](Cc1c[nH]c2ccccc12)NC(=O)[C@H](Cc1c[nH]cn1)NC(=O)[C@@H]1CCC(=O)N1` [GnRH II, [His^5, Trp^7, Tyr^8]GnRH, reference compound] ([pGlu]HWSHGWYPG-NH2) was run?
**A.** Its pEC50 is 9.00.

**Q.** And the “inhibition by free peptide” value [1]?
**A.** The value was “cross-react less”.

**Q.** Which results are given for KSCN?
**A.** pIC50 (GnRH [2]; 0.3 nM GnRH, read-out: antibody concentration inhibiting 50% of GnRH-stimulated IP accumulation): 8.77; inhibition of GnRH (analog) stimulated IP production by eluted antibody fractions (GnRH [3]): most effective; cross-reaction of eluted antibody fractions with GnRH ([1]; inhibition ELISA): cross-reacted most efficiently

**Q.** VRTVEDGEC [V9C, unrelated L peptide] was tested. Which “inhibition by free peptide” value [1] did it give?
**A.** The value was “not significantly inhibited; also recorded: low inhibition”.

**Q.** What does the source list for glycine?
**A.** fold suppression of EC50 of GnRH-stimulated IP accumulation (GnRH [2]; 5 nM antibody fraction): 4.4 fold; affinity of antibody populations for RI-GnRH peptide (RI-GnRH peptide): higher affinity than those eluted with KSCN

**Q.** What does the source list for “GPRLGYSWHEC (G[dP][dR][dL]G[dY][dS][dW][dH][dE][dC]; not fully specified) [RI-GnRH, retro-inverso GnRH peptide with additional C-terminal cysteine for conjugation]”?
**A.** effect of RI-GnRH peptide alone on IP accumulation / GnRH stimulated IP accumulation (human GnRH receptor; data not shown, listed as RI-GnRH peptide): could not stimulate or inhibit; also recorded: did not stimulate or inhibit; inhibition by free peptide of anti-RI-GnRH antibody binding to fixed RI-GnRH [1]: incrementally decreased; anti-RI-GnRH antibody response (rabbits): high titre; development of anti-RI-GnRH antibodies (male BALB/c mice; 25 μg/mouse conjugated with MAO, i.p., CFA + m-BSA): All five immunised male mice developed anti-RI-GnRH antibodies; testis histology (male BALB/c mice; males sacrificed 75 days after primary injection): atrophied Leydig and Sertoli cells, less spermatogonia and primary spermatocytes, presence of very few spermatids and reduced diameters of the seminiferous tubules; infertile immunised male mice (male BALB/c mice; mated with normal females from day 45): Two of the group of five; adverse side effects or changes in body weight (male BALB/c mice; mouse, in vivo): no indication of adverse side effects or changes in body weight; testis weight (male BALB/c mice; mouse, in vivo): reduced testis weight; production of anti-RI-GnRH antibodies (BALB/c mice; 25 μg/mouse unconjugated RI-GnRH with CpG 50 μg/mouse, m-BSA, 10% IFA): produced anti-RI-GnRH antibodies, which cross-reacted with the native hormone; mice infertile until day 220 (BALB/c mice; boosted at day 97): four mice stayed infertile; infertile mice on day 120 (BALB/c mice; boosted at day 97, mated one week thereafter): Two mice were infertile; Titre 1 (d 37) (BALB/c mice; female mice): 3.00E−05 and 1.30E−04 and 1.00E−02; Titre 1 (d 37) (BALB/c mice; male mice): 3.00E−05 and 1.00E−03 and 5.00E−04; fertility after pairing at day 37 (BALB/c mice; male and female mice paired with normal partners): All mice were infertile after pairing at day 37, except for one; adverse side effects or changes in body weight (BALB/c mice; mouse, in vivo): no indication of adverse side effects or changes in body weight; litters from further matings up to day 90 (BALB/c mice; mouse, in vivo): no litters
